Measured values published in PMC7802074, “Azanitrile Inhibitors of the SmCB1 Protease Target Are Lethal to Schistosoma mansoni: Structural and Mechanistic Insights into Chemotype Reactivity” (ACS Infectious Diseases, 2020).
Several values for one entry are separate records, joined by “and”; a condition that tells them apart may be missing. Equal values may be shown once.

Key:
[1] = target: recombinant SmCB1 (Schistosoma mansoni, UniProt Q8MNY2, T185A/T300A); assay: SmCB1 kinetic inhibition assay with fluorogenic substrate Cbz-Phe-Arg-AMC; format: biochemical; details: substrate Cbz-Phe-Arg-AMC; for Ki: SmCB1 inhibition Ki, kinetic activity assay, pH 5.5, 37 °C; for SmCB1 inhibition k2nd (second-order rate constant): slow-binding azadipeptide nitriles
Method: Inhibition measurements were performed in triplicates in 96-well microplates (100 μL assay volume) at 37 °C. SmCB1 (20–40 pM) was added to a mixture of the fluorogenic substrate Cbz-Phe-Arg-AMC (20 μM) and an inhibitor (0–100 μM) in 0.1 M sodium acetate, pH 5.5, containing 2.5 mM dithiothreitol and 0.1% PEG 6000. The substrate hydrolysis was monitored in an Infinite M1000 microplate reader (Tecan, Männedorf, Switzerland) at excitation and emission wavelengths of 360 and 465 nm, respectively, for up to 15 and 60 min for fast- and slow-binding inhibitors, respectively. […] For slow-binding inhibitors, an observed first-order rate constant kobs was calculated at each inhibitor concentration by fitting the progress curve to the equation P = vst + (vi – vs)(1 – […])/kobs + d, where P is the product formation, vs is the steady-state velocity, t is the reaction time, vi is the initial velocity, and d is the offset. The inhibition constant Ki′ was determined by nonlinear regression using the equation vs/v0 = 1/(1 + [I]/Ki′). The true inhibition constants Ki were then calculated using the equation Ki = Ki′/(1 + [S]/Km), where [S] is the substrate concentration and Km is the Michaelis constant. The apparent second-order rate constant k2nd′ was determined by fitting to the linear equation kobs = k2nd′[I] + koff, where koff is the first-order rate constants for the dissociation of the enzyme–inhibitor complex and the true constant k2nd was calculated by the correction k2nd = k2nd′(1 + [S]/Km). […] In none of the assay systems did the final concentration of DMSO exceed 1.5%.

[2] = system: S. mansoni newly transformed schistosomula (NTS); assay: Schistosome phenotypic assay; format: cell-based, Schistosoma mansoni; details: for Severity score Day 1 / Severity score Day 2 / Severity score Day 3 / Severity score Day 4: 10 μM inhibitor, scale 0 (no effect) to 4 (severe); for Severity score Day 1: 24 h; for Severity score Day 2: 48 h
Method: Newly transformed schistosomula (NTS) of S. mansoni were prepared by mechanically transforming infective larvae (cercariae) as described previously.[70],[71] NTS (200–300 parasites) were incubated in 200 μL of Basch Medium 169 containing 5% FBS, 100 U mL^–1 penicillin, and 100 μg mL^–1 streptomycin at 5% CO2 and 37 °C.[70],[72],[73] Inhibitors were added at the final concentration of 10 μM,[20],[69] and changes in phenotypes were observed every 24 h for up to 4 days. A constrained nomenclature of “descriptors” is used to record the multiple and dynamic changes in movement, shape, and translucence of which the schistosome parasite is capable (Table S3).[70] These descriptors are then converted into an ordinal “severity score” system from 0 (no effect) to 4 (maximum effect), which allows for the relative comparison of compound effects, as described.[74],[75] Images of NTS were captured using a Zeiss Axiovert 40 C inverted microscope (10× objective) and a Zeiss AxioCam MRc digital camera controlled by AxioVision 40 (v. 4.8.1.0) software.

[3] = Cytotoxicity, XTT test, HepG2; format: cell-based; details: human, % viability vs. untreated cells, read-out: Cell line viability after 72 h; for viability at 72 h, 1 µM: HepG2, 1 µM; for viability at 72 h, 10 µM: HepG2, 10 µM
Method: (§1) T able S4. […]
(§2) Cell line viability after 72 h (%)a
(§3) Inhibitor 1 µM 10 µM 1 µM 10 µM
(§4) aCytotoxicity of the inhibitors towards human cell lines are expressed as % viability vs. untreated cells. Cells were treated with
(§5) the indicated concentration of the compounds for 72 h and assayed by means of the XTT test (as described previously 12).
(§6) Standard deviation values were within 10% of the mean of tetraplicates. […]

[4] = Cytotoxicity, XTT test, HUVEC; format: cell-based; details: human, % viability vs. untreated cells, read-out: Cell line viability after 72 h
Method: as §1, §2, §3, §4, §5, §6

Sequence of recombinant SmCB1 (Q8MNY2 87-340 T185A/T300A): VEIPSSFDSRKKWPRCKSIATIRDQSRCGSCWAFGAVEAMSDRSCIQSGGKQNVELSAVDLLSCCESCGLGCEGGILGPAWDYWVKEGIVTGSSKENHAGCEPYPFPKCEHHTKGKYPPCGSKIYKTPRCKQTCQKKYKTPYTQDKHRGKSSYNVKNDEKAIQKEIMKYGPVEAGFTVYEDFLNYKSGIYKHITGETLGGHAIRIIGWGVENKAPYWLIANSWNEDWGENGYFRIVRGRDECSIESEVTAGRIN

Row | SMILES | Ki [1] [nM] | SmCB1 inhibition k2nd (second-order rate constant) [1] | Descriptors Day 1 (phenotypic changes) ([2]; 10 µM inhibitor) | Descriptors Day 2 (phenotypic changes) ([2]; 10 µM inhibitor) | Severity score Day 1 [2] | Severity score Day 2 [2] | Severity score Day 3 [2] | Severity score Day 4 [2] | viability at 72 h, 1 µM [3] [%] | viability at 72 h, 10 µM [3] [%] | viability at 72 h, 1 µM [4] [%] | viability at 72 h, 10 µM [4] [%] | Descriptors Day 3 (phenotypic changes) ([2]; 10 µM inhibitor)
1 | CCCCCN(C#N)N(C)C(=O)[C@H](Cc1ccccc1)NC(=O)OCc1ccccc1 [Compound 9a] | 6.2 ± 0.5 | 2.1 10^3 M^-1 s^-1 and 2.1 ± 0.3 10^3 M^-1 s^-1 | Deg | Deg | 4 and 4/4 | 4 and 4/4 | 4 | 4 | 85 | 78 | 104 | 81 | –
2 | CN(C#N)N(C)C(=O)[C@H](CC1CCCCC1)NC(=O)OCc1ccccc1 [Compound 11a] | 4.6 ± 0.5 | 32.7 ± 2.8 10^3 M^-1 s^-1 | R, Unc | Deg | 2 | 4 | 4 | 4 | 89 | 109 | 92 | 85 | Deg
